Consider two compounds from patent US12486301B2, “8-fluoro-4-alkylumbelliferyl α-D-glucopyranoside, biological sterilization indicator including the same and its use in a method of determining efficacy of a sterilization process” (Solventum Intellectual Properties Company, priority 2019, dated 2025).

The nature of one data set: Enzyme substrate degradation in culture media at various temperatures (fluorescence). As to conditions: pH 6 culture media, 0.3 mg/mL, 70° C. dry heat block 15 min. It is filed as physicochemical. The procedure: Culture media was prepared by dissolving 5 g/L peptone C (BD 211921) and 12 g/L phytone peptone (BD BBL 211906) in deionized water. The pH was adjusted with 1 N NaOH or 0.1 N HCl, the media brought to volume, and then filter sterilized with a 0.22 micron PES filter. Stock solutions ([…]) of 8′-fluoro-4′-methylumbelliferyl-α-D-glucopyranoside, 6′-fluoro-4′-methylumbelliferyl-α-D-glucopyranoside, and 4-methylumbelliferyl-α-D-glucopyranoside were prepared in DMSO. The aforementioned substrates were added to culture media at a final concentration of 0.1 mg/ml and media were then 0.22 μm filter sterilized.
(§1) One milliliter of filter-sterilized culture media (pH 6) containing 0.3 mg/ml of 8′-fluoro-4′-methylumbelliferyl-[…]-D-glucopyranoside substrate was transferred to three 1.5 ml microcentrifuge tubes. One of the 1.5 ml tubes was kept at room temperature (24.5° C.). The second tube was placed in a 70° C. dry heat block for 15 min and the third tube was placed in a 100° C. heat block for 15 min. Tubes were kept at room temperature for 30 min following heat exposure, briefly vortexed and centrifuged to collect liquid. One hundred microliters of culture media with substrate from each of the tubes was transferred to two wells (100 microliters per well) of a black 96-well microtiter plate with (NUNC #165301, Thermo Fisher Scientific). The top of the plate was covered with an optically clear sealing film (product #4311971, Applied Biosystems Corporation). Fluorescence readings (360 nm excitation/455 nm emission at 50% gain) were taken from the top of the plate.
(§2) The tube exposed to 100° C. (with 800 ul of remaining media with substrate) was exposed for a second time to 100° C. for 15 min in a dry heat block. One hundred microliters of culture media with substrate from the tube was transferred to two wells (100 microliters per well) of a black 96-well microtiter plate with (NUNC #165301, Thermo Fisher Scientific). The top of the plate was covered with an optically clear sealing film (product #4311971, Applied Biosystems Corporation). Fluorescence readings (360 nm excitation/455 nm emission at 50% gain) were taken from the top of the plate. In Table 9, the mean fluorescence values detected (RFU) for each of the heating conditions are reported.
as §1, with “7)” for “6)”
as §2, with “10,” for “9,”, “reported. […]” for “reported.”
Consider `Cc1cc(=O)oc2c(F)c(O[C@H]3O[C@H](CO)[C@@H](O)[C@H](O)[C@H]3O)ccc12` [Example 1, 8′-Fluoro-4′-methylumbelliferyl […]-D-glucopyranoside], for which the “MEASURED FLUORESCENCE, RFU 70° C. 15 min” value came to 799.5 RFU.

With `Cc1cc(=O)oc2cc(O[C@H]3O[C@H](CO)[C@@H](O)[C@H](O)[C@H]3O)ccc12` [MUG, 4′-methylumbelliferyl-α-D-glucopyranoside], the “MEASURED FLUORESCENCE, RFU 70° C. 15 min” value is reported as 774.5 RFU.

Still in this data set, the particulars now being: pH 6 culture media, 0.3 mg/mL, 100° C. 15 min, second time 15 min.
Take `Cc1cc(=O)oc2c(F)c(O[C@H]3O[C@H](CO)[C@@H](O)[C@H](O)[C@H]3O)ccc12` [Example 1, 8′-Fluoro-4′-methylumbelliferyl […]-D-glucopyranoside]: the “MEASURED FLUORESCENCE, RFU 100° C. 15 + 15 min” value amounted to 1114.5 RFU.

As to `Cc1cc(=O)oc2cc(O[C@H]3O[C@H](CO)[C@@H](O)[C@H](O)[C@H]3O)ccc12` [MUG, 4′-methylumbelliferyl-α-D-glucopyranoside], the “MEASURED FLUORESCENCE, RFU 100° C. 15 + 15 min” value was 888 RFU.

The data set is the same for the next values; noted with them: pH 6 culture media, 0.3 mg/mL, 100° C. heat block 15 min.
Take `Cc1cc(=O)oc2c(F)c(O[C@H]3O[C@H](CO)[C@@H](O)[C@H](O)[C@H]3O)ccc12` [Example 1, 8′-Fluoro-4′-methylumbelliferyl […]-D-glucopyranoside]: the “MEASURED FLUORESCENCE, RFU 100° C. 15 min” value came to 957.5 RFU.

Consider `Cc1cc(=O)oc2cc(O[C@H]3O[C@H](CO)[C@@H](O)[C@H](O)[C@H]3O)ccc12` [MUG, 4′-methylumbelliferyl-α-D-glucopyranoside], for which the “MEASURED FLUORESCENCE, RFU 100° C. 15 min” value amounted to 829 RFU.

Staying with this data set, now noted: pH 6 culture media, 0.3 mg/mL, no spores, room temperature (24.5° C.), 360 nm excitation/455 nm emission.
Turning to `Cc1cc(=O)oc2c(F)c(O[C@H]3O[C@H](CO)[C@@H](O)[C@H](O)[C@H]3O)ccc12` [Example 1, 8′-Fluoro-4′-methylumbelliferyl […]-D-glucopyranoside], the “MEASURED FLUORESCENCE, RFU RT 15 min” value turned out to be 751.5 RFU.

Consider `Cc1cc(=O)oc2cc(O[C@H]3O[C@H](CO)[C@@H](O)[C@H](O)[C@H]3O)ccc12` [MUG, 4′-methylumbelliferyl-α-D-glucopyranoside], for which the “MEASURED FLUORESCENCE, RFU RT 15 min” value was determined as 751 RFU.

The data set is the same for the next values; noted with them: pH 7 culture media, 0.3 mg/mL, 70° C. dry heat block 15 min.
For the compound `Cc1cc(=O)oc2c(F)c(O[C@H]3O[C@H](CO)[C@@H](O)[C@H](O)[C@H]3O)ccc12` [Example 1, 8′-Fluoro-4′-methylumbelliferyl […]-D-glucopyranoside], the “MEASURED FLUORESCENCE, RFU 70° C. 15 min” value turned out to be 759.5 RFU.

On to `Cc1cc(=O)oc2cc(O[C@H]3O[C@H](CO)[C@@H](O)[C@H](O)[C@H]3O)ccc12` [MUG, 4′-methylumbelliferyl-α-D-glucopyranoside], for which the “MEASURED FLUORESCENCE, RFU 70° C. 15 min” value is reported as 809 RFU.

Still in this data set, the particulars now being: pH 7 culture media, 0.3 mg/mL, 100° C. 15 min, second time 15 min.
Take `Cc1cc(=O)oc2c(F)c(O[C@H]3O[C@H](CO)[C@@H](O)[C@H](O)[C@H]3O)ccc12` [Example 1, 8′-Fluoro-4′-methylumbelliferyl […]-D-glucopyranoside]: the “MEASURED FLUORESCENCE, RFU 100° C. 15 + 15 min” value came out at 1529 RFU.

Consider `Cc1cc(=O)oc2cc(O[C@H]3O[C@H](CO)[C@@H](O)[C@H](O)[C@H]3O)ccc12` [MUG, 4′-methylumbelliferyl-α-D-glucopyranoside], for which the “MEASURED FLUORESCENCE, RFU 100° C. 15 + 15 min” value was determined as 893.5 RFU.

Still in this data set, the particulars now being: pH 7 culture media, 0.3 mg/mL, 100° C. heat block 15 min.
Take `Cc1cc(=O)oc2c(F)c(O[C@H]3O[C@H](CO)[C@@H](O)[C@H](O)[C@H]3O)ccc12` [Example 1, 8′-Fluoro-4′-methylumbelliferyl […]-D-glucopyranoside]: the “MEASURED FLUORESCENCE, RFU 100° C. 15 min” value is 1195 RFU.

For the compound `Cc1cc(=O)oc2cc(O[C@H]3O[C@H](CO)[C@@H](O)[C@H](O)[C@H]3O)ccc12` [MUG, 4′-methylumbelliferyl-α-D-glucopyranoside], the “MEASURED FLUORESCENCE, RFU 100° C. 15 min” value amounted to 862 RFU.

The data set is the same for the next values; noted with them: pH 7 culture media, 0.3 mg/mL, room temperature (24.5° C.).
Regarding `Cc1cc(=O)oc2c(F)c(O[C@H]3O[C@H](CO)[C@@H](O)[C@H](O)[C@H]3O)ccc12` [Example 1, 8′-Fluoro-4′-methylumbelliferyl […]-D-glucopyranoside], the “MEASURED FLUORESCENCE, RFU RT 15 min” value is listed as 740.5 RFU.

With `Cc1cc(=O)oc2cc(O[C@H]3O[C@H](CO)[C@@H](O)[C@H](O)[C@H]3O)ccc12` [MUG, 4′-methylumbelliferyl-α-D-glucopyranoside], the “MEASURED FLUORESCENCE, RFU RT 15 min” value was 671 RFU.

Still in this data set, the particulars now being: pH 8 culture media, 0.3 mg/mL, 70° C. dry heat block 15 min.
Take `Cc1cc(=O)oc2c(F)c(O[C@H]3O[C@H](CO)[C@@H](O)[C@H](O)[C@H]3O)ccc12` [Example 1, 8′-Fluoro-4′-methylumbelliferyl […]-D-glucopyranoside]: the “MEASURED FLUORESCENCE, RFU 70° C. 15 min” value came to 832 RFU.

For the compound `Cc1cc(=O)oc2cc(O[C@H]3O[C@H](CO)[C@@H](O)[C@H](O)[C@H]3O)ccc12` [MUG, 4′-methylumbelliferyl-α-D-glucopyranoside], the “MEASURED FLUORESCENCE, RFU 70° C. 15 min” value is reported as 823.5 RFU.

The data set is the same for the next values; noted with them: pH 8 culture media, 0.3 mg/mL, 100° C. 15 min, second time 15 min.
Take `Cc1cc(=O)oc2c(F)c(O[C@H]3O[C@H](CO)[C@@H](O)[C@H](O)[C@H]3O)ccc12` [Example 1, 8′-Fluoro-4′-methylumbelliferyl […]-D-glucopyranoside]: the “MEASURED FLUORESCENCE, RFU 100° C. 15 + 15 min” value was 1543 RFU.

In the case of `Cc1cc(=O)oc2cc(O[C@H]3O[C@H](CO)[C@@H](O)[C@H](O)[C@H]3O)ccc12` [MUG, 4′-methylumbelliferyl-α-D-glucopyranoside], the “MEASURED FLUORESCENCE, RFU 100° C. 15 + 15 min” value was 939 RFU.

The same data set, now with this note: pH 8 culture media, 0.3 mg/mL, 100° C. heat block 15 min.
For the compound `Cc1cc(=O)oc2c(F)c(O[C@H]3O[C@H](CO)[C@@H](O)[C@H](O)[C@H]3O)ccc12` [Example 1, 8′-Fluoro-4′-methylumbelliferyl […]-D-glucopyranoside], the “MEASURED FLUORESCENCE, RFU 100° C. 15 min” value was 1274 RFU.

Regarding `Cc1cc(=O)oc2cc(O[C@H]3O[C@H](CO)[C@@H](O)[C@H](O)[C@H]3O)ccc12` [MUG, 4′-methylumbelliferyl-α-D-glucopyranoside], the “MEASURED FLUORESCENCE, RFU 100° C. 15 min” value is on record as 857.5 RFU.

The same data set, now with this note: pH 8 culture media, 0.3 mg/mL, room temperature (24.5° C.).
In the case of `Cc1cc(=O)oc2c(F)c(O[C@H]3O[C@H](CO)[C@@H](O)[C@H](O)[C@H]3O)ccc12` [Example 1, 8′-Fluoro-4′-methylumbelliferyl […]-D-glucopyranoside], the “MEASURED FLUORESCENCE, RFU RT 15 min” value was 774 RFU.

As for `Cc1cc(=O)oc2cc(O[C@H]3O[C@H](CO)[C@@H](O)[C@H](O)[C@H]3O)ccc12` [MUG, 4′-methylumbelliferyl-α-D-glucopyranoside], the “MEASURED FLUORESCENCE, RFU RT 15 min” value was found to be 788.5 RFU.

The data set is the same for the next values; noted with them: pH 9 culture media, 0.3 mg/mL, 70° C. dry heat block 15 min.
As to `Cc1cc(=O)oc2c(F)c(O[C@H]3O[C@H](CO)[C@@H](O)[C@H](O)[C@H]3O)ccc12` [Example 1, 8′-Fluoro-4′-methylumbelliferyl […]-D-glucopyranoside], the “MEASURED FLUORESCENCE, RFU 70° C. 15 min” value came out at 905.5 RFU.

As for `Cc1cc(=O)oc2cc(O[C@H]3O[C@H](CO)[C@@H](O)[C@H](O)[C@H]3O)ccc12` [MUG, 4′-methylumbelliferyl-α-D-glucopyranoside], the “MEASURED FLUORESCENCE, RFU 70° C. 15 min” value amounted to 862.5 RFU.

Still in this data set, the particulars now being: pH 9 culture media, 0.3 mg/mL, 100° C. 15 min, second time 15 min.
As for `Cc1cc(=O)oc2c(F)c(O[C@H]3O[C@H](CO)[C@@H](O)[C@H](O)[C@H]3O)ccc12` [Example 1, 8′-Fluoro-4′-methylumbelliferyl […]-D-glucopyranoside], the “MEASURED FLUORESCENCE, RFU 100° C. 15 + 15 min” value stood at 1770.5 RFU.

With `Cc1cc(=O)oc2cc(O[C@H]3O[C@H](CO)[C@@H](O)[C@H](O)[C@H]3O)ccc12` [MUG, 4′-methylumbelliferyl-α-D-glucopyranoside], the “MEASURED FLUORESCENCE, RFU 100° C. 15 + 15 min” value was 1099 RFU.

The data set is the same for the next values; noted with them: pH 9 culture media, 0.3 mg/mL, 100° C. heat block 15 min.
On to `Cc1cc(=O)oc2c(F)c(O[C@H]3O[C@H](CO)[C@@H](O)[C@H](O)[C@H]3O)ccc12` [Example 1, 8′-Fluoro-4′-methylumbelliferyl […]-D-glucopyranoside], for which the “MEASURED FLUORESCENCE, RFU 100° C. 15 min” value was determined as 1343.5 RFU.

In the case of `Cc1cc(=O)oc2cc(O[C@H]3O[C@H](CO)[C@@H](O)[C@H](O)[C@H]3O)ccc12` [MUG, 4′-methylumbelliferyl-α-D-glucopyranoside], the “MEASURED FLUORESCENCE, RFU 100° C. 15 min” value was found to be 978.5 RFU.

The data set is the same for the next values; noted with them: pH 9 culture media, 0.3 mg/mL, room temperature (24.5° C.).
On to `Cc1cc(=O)oc2c(F)c(O[C@H]3O[C@H](CO)[C@@H](O)[C@H](O)[C@H]3O)ccc12` [Example 1, 8′-Fluoro-4′-methylumbelliferyl […]-D-glucopyranoside], for which the “MEASURED FLUORESCENCE, RFU RT 15 min” value was found to be 811.5 RFU.

As for `Cc1cc(=O)oc2cc(O[C@H]3O[C@H](CO)[C@@H](O)[C@H](O)[C@H]3O)ccc12` [MUG, 4′-methylumbelliferyl-α-D-glucopyranoside], the “MEASURED FLUORESCENCE, RFU RT 15 min” value was found to be 694 RFU.
